# Calls of active or inactive are those of the source. The calls are words filed in the database; no cut-off is given here.
# What was measured:
# [1] = test system: Panel NCI-60 (60 carcinoma cell lines); experiment: Antiproliferative activity against human NCI60 cells assessed as growth inhibition after 48 hrs by sulforhodamine B assay; format: functional
# HL-60(TB) = experiment: Antiproliferative activity against human HL-60(TB) cells assessed as growth inhibition after 48 hrs by sulforhodamine B assay; format: functional; conditions: HL-60, 48 h
# [2] = Selectivity index, ratio of IC50 for human WI38 cells to GI50 for human NCI60 cells
# [3] = Haemolytic activity in human erythrocytes assessed as induction of hemolysis at 1.25 mM after 30 mins relative to H202; format: cell-based, Erythrocyte; conditions: erythrocytes, read-out: Activity
# IGROV-1 = experiment: Antiproliferative activity against human IGROV1 cells assessed as growth inhibition after 48 hrs by sulforhodamine B assay; format: functional; conditions: IGROV-1, 48 h
# SNB-19 = experiment: Antiproliferative activity against human SNB19 cells assessed as growth inhibition after 48 hrs by sulforhodamine B assay; format: functional; conditions: SNB-19, 48 h
# SF-539 = experiment: Antiproliferative activity against human SF539 cells assessed as growth inhibition after 48 hrs by sulforhodamine B assay; format: functional; conditions: SF-539, 48 h
# MDA-MB-231 = experiment: Antiproliferative activity against human MDA-MB-231/ATCC cells assessed as growth inhibition after 48 hrs by sulforhodamine B assay; format: functional; conditions: MDA-MB-231, 48 h
# SK-MEL-28 = experiment: Antiproliferative activity against human SK-MEL-28 cells assessed as growth inhibition after 48 hrs by sulforhodamine B assay; format: functional; conditions: SK-MEL-28, 48 h
# CAKI-1 = experiment: Antiproliferative activity against human CAKI-1 cells assessed as growth inhibition after 48 hrs by sulforhodamine B assay; format: functional; conditions: CAKI-1, 48 h
# SN12C = experiment: Antiproliferative activity against human SN12C cells assessed as growth inhibition after 48 hrs by sulforhodamine B assay; format: functional
# SK-MEL-5 = experiment: Antiproliferative activity against human SK-MEL-5 cells assessed as growth inhibition after 48 hrs by sulforhodamine B assay; format: functional; conditions: SK-MEL-5, 48 h
# OVCAR-5 = experiment: Antiproliferative activity against human OVCAR5 cells assessed as growth inhibition after 48 hrs by sulforhodamine B assay; format: functional; conditions: OVCAR-5, 48 h
# RXF 393 = experiment: Antiproliferative activity against human RXF393 cells assessed as growth inhibition after 48 hrs by sulforhodamine B assay; format: functional; conditions: RXF 393, 48 h
# SR = experiment: Antiproliferative activity against human SR cells assessed as growth inhibition after 48 hrs by sulforhodamine B assay; format: functional
# HCT-116 [4] = experiment: Induction of apoptosis in human HCT116 cells assessed as increase in caspase 3 mRNA expression at 100 nM after 6 hrs hrs by SYBR green dye-based qRT-PCR analysis relative to control; format: functional
# [5] = Haemolytic activity in human erythrocytes assessed as induction of hemolysis at 2.5 mM after 30 mins relative to H202; format: cell-based, Erythrocyte; conditions: erythrocytes, read-out: Activity
# [6] = Antioxidant activity assessed as hydroxyl radical scavenging activity after 1 hr by salicylic acid-based Fenton reaction assay; format: functional
# A549 = experiment: Antiproliferative activity against human A549/ATCC cells assessed as growth inhibition after 48 hrs by sulforhodamine B assay; format: functional; conditions: A549, 48 h
# HCT-15 = experiment: Antiproliferative activity against human HCT15 cells assessed as growth inhibition after 48 hrs by sulforhodamine B assay; format: functional; conditions: HCT-15, 48 h
# HCT-116 [7] = experiment: Induction of apoptosis in human HCT116 cells assessed as increase in p53 mRNA expression at 100 nM after 6 hrs hrs by SYBR green dye-based qRT-PCR analysis relative to control; format: functional
# BT-549 = experiment: Antiproliferative activity against human BT549 cells assessed as growth inhibition after 48 hrs by sulforhodamine B assay; format: functional; conditions: BT-549, 48 h
# MDA-MB-468 = experiment: Antiproliferative activity against human MDA-MB-468 cells assessed as growth inhibition after 48 hrs by sulforhodamine B assay; format: functional; conditions: MDA-MB-468, 48 h
# WI-38 = experiment: Cytotoxicity activity against human WI38 cells assessed as reduction in cell viability measured after 48 hrs by MTT assay; format: cell-based; conditions: WI-38, 48 h
# MOLT-4 = experiment: Antiproliferative activity against human MOLT4 cells assessed as growth inhibition after 48 hrs by sulforhodamine B assay; format: functional; conditions: MOLT-4, 48 h
# [8] = Haemolytic activity in human erythrocytes assessed as induction of hemolysis at 5 mM after 30 mins relative to H202; format: cell-based, Erythrocyte; conditions: read-out: Activity
# [9] = Antioxidant activity assessed as DPPH radical scavenging activity incubated in dark for 30 mins by spectrophotometric method relative to control; format: functional; parameters: concentration or dose not given beside the values
# HCC 2998 = experiment: Antiproliferative activity against human HCC2998 cells assessed as growth inhibition after 48 hrs by sulforhodamine B assay; format: functional; conditions: HCC 2998, 48 h
# M14 = experiment: Antiproliferative activity against human M14 cells assessed as growth inhibition after 48 hrs by sulforhodamine B assay; format: functional; conditions: M14, 48 h
# KM12 = experiment: Antiproliferative activity against human KM12 cells assessed as growth inhibition after 48 hrs by sulforhodamine B assay; format: functional; conditions: KM12, 48 h
# LOX IMVI = experiment: Antiproliferative activity against human LOXIMVI cells assessed as growth inhibition after 48 hrs by sulforhodamine B assay; format: functional
# UACC-257 = experiment: Antiproliferative activity against human UACC257 cells assessed as growth inhibition after 48 hrs by sulforhodamine B assay; format: functional; conditions: UACC-257, 48 h
# 786-0 = experiment: Antiproliferative activity against human 786-0 cells assessed as growth inhibition after 48 hrs by sulforhodamine B assay; format: functional; conditions: 786-0, 48 h
# HCT-116 [10] = experiment: Induction of apoptosis in human HCT116 cells assessed as increase in caspase 9 mRNA expression at 100 nM after 6 hrs hrs by SYBR green dye-based qRT-PCR analysis relative to control; format: functional
# NCI-H23 = experiment: Antiproliferative activity against human NCI-H23 cells assessed as growth inhibition after 48 hrs by sulforhodamine B assay; format: functional; conditions: NCI-H23, 48 h
# T47D = experiment: Antiproliferative activity against human T47D cells assessed as growth inhibition after 48 hrs by sulforhodamine B assay; format: functional
smiles,measurement,setting,value
N=C(N)c1ccc(-c2ccc(-c3ccc(Cl)cc3)o2)o1,GI50,[1],1810 nM
same,LC50,[1],12600 nM
same,TGI,[1],3720 nM
same,GI50,HL-60(TB),1870 nM
same,Selectivity Index,[2],5.5
same,"hemolysis at 0.5 h, 1250 µM",[3],14%
same,GI50,IGROV-1,1770 nM
same,GI50,SNB-19,1860 nM
same,GI50,SF-539,1710 nM
same,GI50,MDA-MB-231,2010 nM
same,GI50,SK-MEL-28,1830 nM
same,GI50,CAKI-1,1690 nM
same,GI50,SN12C,1900 nM
same,GI50,SK-MEL-5,1810 nM
same,GI50,OVCAR-5,1820 nM
same,GI50,RXF 393,1820 nM
same,GI50,SR,1630 nM
same,fold change (FC),HCT-116 [4],3.55
same,"hemolysis at 0.5 h, 2500 µM",[5],41.3%
same,Activity,[6],Active
same,GI50,A549,1980 nM
same,GI50,HCT-15,1520 nM
same,fold change (FC),HCT-116 [7],1.09
same,GI50,BT-549,5920 nM
same,GI50,MDA-MB-468,2190 nM
same,IC50,WI-38,10100 nM
same,GI50,MOLT-4,1660 nM
same,"hemolysis at 0.5 h, 5000 µM",[8],70.7%
same,inhibition,[9],17.5%
same,GI50,HCC 2998,1960 nM
same,GI50,M14,1850 nM
same,GI50,KM12,1630 nM
same,GI50,LOX IMVI,1760 nM
same,GI50,UACC-257,1990 nM
same,GI50,786-0,1850 nM
same,fold change (FC),HCT-116 [10],4
same,GI50,NCI-H23,1690 nM
same,GI50,T47D,1710 nM
